Laboratory results as given in PubChem BioAssay AID328 (DTP/NCI, 2004).
Several values for one entry are separate records, joined by “and”; a condition that tells them apart may be missing. Equal values may be shown once. Inconclusive results and toxic doses are left out.

Tested on: BDF1 mice, P388 leukemia ip, median survival T/C
Experiment: NCI In Vivo Anticancer Drug Screen. Data for tumor model P388 Leukemia (intraperitoneal) in B6D2F1 (BDF1) mice
Settings: endpoint: median survival time, higher = longer survival
Description: The antitumor activity of compounds was measured in mice bearing transplantable tumors. Survival or tumor size were measured and the results are expressed as the measurement made in the treated group (T) divided by the measurement made in the vehicle treated control group (C). The tumor model used in this assay is P388 Leukemia (intraperitoneal) in B6D2F1 (BDF1) mice

[1] = dose: 100.0 mg/kg/injection, schedule: Q01DX009 (ip), vehicle: saline
[2] = dose: 50.0 mg/kg/injection, schedule: Q01DX009 (ip), vehicle: Klucel (hydroxypropylcellulose) (HPC)
[3] = dose: 100.0 mg/kg/injection, schedule: Q01DX009 (ip), vehicle: Klucel (hydroxypropylcellulose) (HPC)
[4] = dose: 200.0 mg/kg/injection, schedule: Q01DX009 (ip), vehicle: Klucel (hydroxypropylcellulose) (HPC)
[5] = dose: 50.0 mg/kg/injection, schedule: Q01DX009 (ip), vehicle: saline with Tween-80
[6] = dose: 200.0 mg/kg/injection, schedule: Q01DX009 (ip), vehicle: saline with Tween-80
[7] = dose: 100.0 mg/kg/injection, schedule: Q01DX009 (ip), vehicle: saline with Tween-80
[8] = dose: 100.0 mg/kg/injection, schedule: Q04DX003 (ip), vehicle: saline with Tween-80
[9] = dose: 200.0 mg/kg/injection, schedule: Q04DX003 (ip), vehicle: saline with Tween-80
[10] = dose: 400.0 mg/kg/injection, schedule: Q04DX003 (ip), vehicle: saline with Tween-80
[11] = dose: 50.0 mg/kg/injection, schedule: Q04DX003 (ip), vehicle: saline
[12] = dose: 100.0 mg/kg/injection, schedule: Q04DX003 (ip), vehicle: saline

COc1cccc2c1C(=O)c1c(O)c3c(c(O)c1C2=O)CC(O)(/C(C)=N/Nc1ccc(Cl)cc1)CC3OC1CC(N)C(O)C(C)O1 (configuration not stated)
T/C (dose: 4.08 mg/kg/injection, schedule: Q04DX003 (ip), vehicle: water): 158 % of control | T/C (dose: 6.8 mg/kg/injection, schedule: Q04DX003 (ip), vehicle: water): 157 % of control

C[n+]1c(-c2cc(Cl)cc(Cl)c2)c2cc([N+](=O)[O-])ccc2c2ccccc21
T/C (dose: 50.0 mg/kg/injection, schedule: Q04DX003 (ip), vehicle: water): 120 % of control | T/C (dose: 200.0 mg/kg/injection, schedule: Q04DX003 (ip), vehicle: water): 122 % of control | T/C (dose: 400.0 mg/kg/injection, schedule: Q04DX003 (ip), vehicle: water): 110 % of control

CN(N=O)C(=O)NCCSSCCNC(=O)N(C)N=O
T/C (dose: 53.0 mg/kg/injection, schedule: Q04DX003 (ip), vehicle: saline with Tween-80): 120 % of control | T/C (dose: 80.0 mg/kg/injection, schedule: Q04DX003 (ip), vehicle: saline with Tween-80): 170 % of control | T/C (dose: 120.0 mg/kg/injection, schedule: Q04DX003 (ip), vehicle: saline with Tween-80): 100 % of control

COc1ccc(OC)c2c1C(=O)CC2C (configuration not stated)
T/C (dose: 25.0 mg/kg/injection, schedule: Q01DX009 (ip), vehicle: saline): 105 % of control | T/C (dose: 50.0 mg/kg/injection, schedule: Q01DX009 (ip), vehicle: saline): 91 % of control | T/C [1]: 98 % of control

c1ccc(N2CCCCCN2c2ccccc2)cc1
T/C (dose: 50.0 mg/kg/injection, schedule: Q01DX001 (ip), vehicle: saline with Tween-80): 92 % of control | T/C (dose: 100.0 mg/kg/injection, schedule: Q01DX001 (ip), vehicle: saline with Tween-80): 90 % of control | T/C (dose: 200.0 mg/kg/injection, schedule: Q01DX001 (ip), vehicle: saline with Tween-80): 90 % of control

CC[N+](CC)(CC)CCCNC1=CC(=O)C(NCCC[N+](CC)(CC)CC)=CC1=O
T/C (dose: 0.39 mg/kg/injection, schedule: Q04DX003 (ip), vehicle: saline): 99 % of control | T/C (dose: 0.78 mg/kg/injection, schedule: Q04DX003 (ip), vehicle: saline): 99 % of control

COc1ccc(N=C(c2ccccc2)c2ccc([N+](=O)[O-])cc2)cc1
T/C (dose: 12.0 mg/kg/injection, schedule: Q01DX009 (ip), vehicle: Klucel (hydroxypropylcellulose) (HPC)): 100 % of control | T/C (dose: 25.0 mg/kg/injection, schedule: Q01DX009 (ip), vehicle: Klucel (hydroxypropylcellulose) (HPC)): 109 % of control | T/C [2]: 100 % of control and 122 % of control | T/C [3]: 86 % of control | T/C [4]: 90 % of control

CCOC(=O)CCN1CC(C)OC(C)C1 (configuration not stated)
T/C [1]: 100 % of control | T/C (dose: 200.0 mg/kg/injection, schedule: Q01DX009 (ip), vehicle: saline): 109 % of control | T/C (dose: 400.0 mg/kg/injection, schedule: Q01DX009 (ip), vehicle: saline): 100 % of control

Cc1cc(O)c(NCCCN(C)C)c2c(=O)c3ccccc3sc12
T/C [5]: 108 % of control | T/C [6]: 115 % of control

Cc1cc(O)c(C(C)C)cc1S(=O)(=O)O (tested in a mixture with another compound)
T/C (dose: 37.5 mg/kg/injection, schedule: Q01DX009 (ip), vehicle: Klucel (hydroxypropylcellulose) (HPC)): 95 % of control | T/C [5]: 100 % of control | T/C [7]: 95 % of control | T/C (dose: 150.0 mg/kg/injection, schedule: Q01DX009 (ip), vehicle: Klucel (hydroxypropylcellulose) (HPC)): 100 % of control | T/C (dose: 150.0 mg/kg/injection, schedule: Q01DX009 (ip), vehicle: saline with Tween-80): 150 % of control

N#C/C(=C\c1ccncc1)c1ccccc1
T/C (dose: 12.5 mg/kg/injection, schedule: Q01DX009 (ip), vehicle: saline with Tween-80): 92 % of control | T/C [5]: 98 % of control | T/C [7]: 112 % of control | T/C [6]: 98 % of control

Cc1ccc(S(=O)(=O)N(c2ccccc2)c2ccccc2)cc1
T/C (dose: 87.5 mg/kg/injection, schedule: Q01DX009 (ip), vehicle: saline with Tween-80): 96 % of control | T/C (dose: 175.0 mg/kg/injection, schedule: Q01DX009 (ip), vehicle: saline with Tween-80): 96 % of control | T/C (dose: 350.0 mg/kg/injection, schedule: Q01DX009 (ip), vehicle: saline with Tween-80): 101 % of control

CCOC(=O)CCCc1ccccc1
T/C [8]: 113 % of control | T/C [9]: 100 % of control | T/C [10]: 100 % of control

COc1cccc2c1C(=O)c1c(O)c3c(c(O)c1C2=O)C[C@@](O)(/C(C)=N/NC(=O)c1ccc(O)cc1)C[C@@H]3OC1CC(N)C(O)C(C)O1 (some centres not stated)
T/C (dose: 0.25 mg/kg/injection, schedule: Q01DX009 (ip), vehicle: water): 120 % of control | T/C (dose: 1.0 mg/kg/injection, schedule: Q01DX009 (ip), vehicle: water): 164 % of control and 223 % of control | T/C (dose: 2.0 mg/kg/injection, schedule: Q01DX009 (ip), vehicle: water): 156 % of control and 207 % of control | T/C (dose: 4.0 mg/kg/injection, schedule: Q01DX009 (ip), vehicle: water): 224 % of control and 225 % of control | T/C (dose: 8.0 mg/kg/injection, schedule: Q01DX009 (ip), vehicle: water): 245 % of control

C=Cc1c(C)c(O)cc2c1CC[C@@H]1C(C)(C)[C@H](O)[C@H](O)C[C@@]21C
T/C [3]: 102 % of control | T/C [4]: 100 % of control | T/C (dose: 400.0 mg/kg/injection, schedule: Q01DX009 (ip), vehicle: Klucel (hydroxypropylcellulose) (HPC)): 113 % of control

CCCCN1CCNCC1
T/C [11]: 95 % of control | T/C [12]: 100 % of control | T/C (dose: 200.0 mg/kg/injection, schedule: Q04DX003 (ip), vehicle: saline): 100 % of control

O=S1(=O)OCc2ccccc21
T/C [2]: 108 % of control | T/C (dose: 50.0 mg/kg/injection, schedule: Q04DX003 (ip), vehicle: Klucel (hydroxypropylcellulose) (HPC)): 86 % of control | T/C [3]: 91 % of control | T/C (dose: 100.0 mg/kg/injection, schedule: Q04DX003 (ip), vehicle: Klucel (hydroxypropylcellulose) (HPC)): 100 % of control and 104 % of control | T/C (dose: 200.0 mg/kg/injection, schedule: Q04DX003 (ip), vehicle: Klucel (hydroxypropylcellulose) (HPC)): 92 % of control and 95 % of control

CN(C)P(N)(=S)N(C)C
T/C [5]: 96 % of control | T/C [7]: 91 % of control | T/C [6]: 96 % of control

O=C(CCBr)N1CCN(C(=O)CCBr)CC1
T/C (dose: 10.0 mg/kg/injection, schedule: Q01DX010 (ip), vehicle: saline): 109 % of control | T/C (dose: 20.0 mg/kg/injection, schedule: Q01DX010 (ip), vehicle: saline): 122 % of control | T/C (dose: 40.0 mg/kg/injection, schedule: Q01DX010 (ip), vehicle: saline): 181 % of control

CN1CCC(=C(C#N)C#N)CC1
T/C (dose: 25.0 mg/kg/injection, schedule: Q04DX003 (ip), vehicle: saline): 95 % of control | T/C [11]: 100 % of control | T/C [12]: 100 % of control

COC(=O)/C=C\SC(=S)C1CCCC1=NC1CCCCC1 (configuration not stated)
T/C [5]: 102 % of control | T/C [7]: 97 % of control

CCOC(=O)C(Cc1ccc(C)cc1)(NC(C)=O)C(=O)OCC
T/C [7]: 92 % of control | T/C [6]: 99 % of control | T/C (dose: 400.0 mg/kg/injection, schedule: Q01DX009 (ip), vehicle: saline with Tween-80): 101 % of control

O=C1CCCCCC2CC12 (configuration not stated) (tested in a mixture with another compound)
T/C (dose: 100.0 mg/kg/injection, schedule: Q01DX001 (ip), vehicle: other): 98 % of control | T/C (dose: 200.0 mg/kg/injection, schedule: Q01DX001 (ip), vehicle: other): 103 % of control | T/C (dose: 400.0 mg/kg/injection, schedule: Q01DX001 (ip), vehicle: other): 108 % of control

Cc1ccc([N+](=O)[O-])cc1NC(=O)SCCOC(=O)COc1ccc(Cl)cc1
T/C [8]: 95 % of control | T/C [9]: 100 % of control | T/C [10]: 109 % of control

O=c1[nH]nc(-c2ccccc2)nc1/C(=N\Nc1ccc([N+](=O)[O-])cc1)c1ccccc1
T/C [5]: 89 % of control | T/C [7]: 89 % of control | T/C [6]: 98 % of control

Cc1cc2c(C(C)C)c(O)c(O)c(C=O)c2c(O)c1-c1c(C)cc2c(C(C)C)c(O)c(O)c(C=O)c2c1O
T/C (dose: 1.25 mg/kg/injection, schedule: Q01DX009 (ip), vehicle: saline with Tween-80): 124 % of control | T/C (dose: 2.5 mg/kg/injection, schedule: Q01DX009 (ip), vehicle: saline with Tween-80): 120 % of control
